In the assay the target is human NEP (Homo sapiens (Human), UniProt P08473). The assay can be described thus: In vitro enzyme inhibition assay at human NEP. The following applies: recombinant human NEP, fluorogenic peptide substrate, 37° C.; for Ki: pKi.
human NEP, sequence (P08473 52-750): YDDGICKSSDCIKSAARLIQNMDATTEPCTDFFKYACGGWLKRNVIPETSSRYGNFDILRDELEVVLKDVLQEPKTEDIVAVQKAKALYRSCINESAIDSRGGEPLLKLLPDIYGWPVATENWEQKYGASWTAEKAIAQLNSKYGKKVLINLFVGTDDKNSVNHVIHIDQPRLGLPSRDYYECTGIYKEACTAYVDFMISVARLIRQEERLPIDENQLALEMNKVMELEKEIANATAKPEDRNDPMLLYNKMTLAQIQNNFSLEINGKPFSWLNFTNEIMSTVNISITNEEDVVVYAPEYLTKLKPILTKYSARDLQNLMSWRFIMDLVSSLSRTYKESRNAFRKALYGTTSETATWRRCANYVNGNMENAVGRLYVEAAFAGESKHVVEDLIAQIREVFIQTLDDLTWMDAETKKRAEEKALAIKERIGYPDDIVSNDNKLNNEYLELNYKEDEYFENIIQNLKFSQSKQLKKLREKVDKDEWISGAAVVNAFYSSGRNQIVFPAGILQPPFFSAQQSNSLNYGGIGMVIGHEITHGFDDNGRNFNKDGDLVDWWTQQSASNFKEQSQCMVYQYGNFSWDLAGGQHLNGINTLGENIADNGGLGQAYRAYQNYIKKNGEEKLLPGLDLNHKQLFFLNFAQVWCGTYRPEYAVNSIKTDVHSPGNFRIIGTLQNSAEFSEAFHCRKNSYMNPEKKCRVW

What is called Ki is the dissociation constant of the complex between target and ligand, obtained from inhibition or displacement. Consider `CN(C)C[C@H](C[C@@H](Cc1ccc(-c2cc(Cl)ccc2F)cc1)NC(=O)c1cnn[nH]1)C(=O)O` [Example 75, (2S,4S)-5-(5′-Chloro-2′-fluorobiphenyl-4-yl)-2-dimethylaminomethyl-4-[(3H-[1,2,3]triazole-4-carbonyl)amino]pentanoic Acid], for which the Ki fell in the range of 1.26 to 3.16 nM.

`Cc1n[nH]c(C(=O)N[C@H](Cc2ccc(-c3cc(Cl)ccc3F)cc2)C[C@@H](N)C(=O)O)c1F` [Example 16-20, (2R,4R)-2-Amino-5-(5′-chloro-2′-fluorobiphenyl-4-yl)-4-[(4-fluoro-5-methyl-2H-pyrazole-3-carbonyl)amino]pentanoic acid]: the Ki was in the range of 1.26 to 3.16 nM.

As to `N[C@@H](C[C@@H](Cc1ccc(-c2cc(Cl)ccc2F)cc1Cl)NC(=O)c1cc(C2CC2)on1)C(=O)O` [Example 18-10, (2S,4R)-2-Amino-4-[(5-cyclopropyl-isoxazole-3-carbonyl)-amino]-5-(3,5′-dichloro-2′-fluorobiphenyl-4-yl)pentanoic acid], the pKi entry is “≧9.0”.

Consider `NC[C@H](C[C@@H](Cc1ccc(-c2cc(Cl)ccc2F)cc1)NC(=O)c1c[nH]nn1)C(=O)O` [Example 20, (2S,4S)-2-Aminomethyl-5-(5′-chloro-2′-fluorobiphenyl-4-yl)-4-[(1H-[1,2,3]triazole-4-carbonyl)amino]pentanoic Acid], for which the pKi result is on record as “≧9.0”.

`COC(=O)N[C@H](C[C@@H](Cc1ccc(-c2cc(Cl)ccc2F)cc1)NC(=O)c1coc(=O)[nH]1)C(=O)O` [Example 30-11, (2R,4R)-5-(5′-Chloro-2′-fluorobiphenyl-4-yl)-2-methoxycarbonylamino-4-[(2-oxo-2,3-dihydro-oxazole-4-carbonyl)amino]pentanoic acid]: the pKi entry was “≧9.0”.

Consider `CC(C)c1coc(C(=O)N[C@H](Cc2ccc(-c3cc(Cl)ccc3F)cc2Cl)C[C@@H](N)C(=O)O)n1` [Example 17, (2R,4R)-2-Amino-5-(3,5′-dichloro-2′-fluorobiphenyl-4-yl)-4-[(4-isopropyloxazole-2-carbonyl)amino]pentanoic Acid], for which the Ki was not above 1 nM.

For the molecule `COC1CN(C[C@@H](C[C@@H](Cc2ccc(-c3cc(Cl)ccc3F)cc2)NC(=O)c2c[nH]nn2)C(=O)O)C1` [Example 102c, (2R,4S)-5-(5′-Chloro-2′-fluorobiphenyl-4-yl)-2-(3-methoxyazetidin-1-ylmethyl)-4-[(1H-[1,2,3]triazole-4-carbonyl)amino]pentanoic Acid], the Ki is not above 1 nM.

Regarding `CCOC[C@H](C[C@@H](Cc1ccc(-c2cc(Cl)ccc2F)cc1)NC(=O)c1cocn1)C(=O)O` [Example 7-7, (2S,4S)-5-(5′-Chloro-2′-fluorobiphenyl-4-yl)-2-ethoxymethyl-4-[(oxazole-4-carbonyl)amino]pentanoic acid], the Ki was 1.26 to 3.16 nM.

For the molecule `CNCC(=O)N[C@H](C[C@@H](Cc1ccc(-c2cc(Cl)ccc2F)cc1)NC(=O)c1cnn[nH]1)C(=O)O` [Example 65, (2R,4R)-5-(5′-Chloro-2′-fluorobiphenyl-4-yl)-2-(2-methylaminoacetylamino)-4-[(3H-[1,2,3]triazole-4-carbonyl)amino]pentanoic Acid], the Ki is 1.26 to 3.16 nM.

`O=C(N[C@H](Cc1ccc(-c2ccccc2)cc1)C[C@@H](COCCCO)C(=O)O)c1c[nH]nn1` [Example 12, (2S,4S)-5-Biphenyl-4-yl-2-(3-hydroxypropoxymethyl)-4-[(1H-[1,2,3]triazole-4-carbonyl)amino]pentanoic Acid]: the Ki fell in the range of 1.26 to 3.16 nM.

Regarding `CS(=O)(=O)N[C@H](C[C@@H](Cc1ccc(-c2ccccc2)cc1)NC(=O)c1c[nH]nn1)C(=O)O` [Example 47, (2R,4R)-5-Biphenyl-4-yl-2-methanesulfonylamino-4-[(1H-[1,2,3]triazole-4-carbonyl)amino]pentanoic Acid], the Ki is 3.16 to 10 nM.

In the case of `CC(C)c1coc(C(=O)N[C@H](Cc2ccc(-c3cc(Cl)ccc3F)cc2)C[C@@H](NC(=O)[C@H](N)C(C)C)C(=O)O)n1` [Example 38-1, (2R,4R)-2-((R)-2-Amino-3-methylbutyrylamino)-5-(5′-chloro-2′-fluorobiphenyl-4-yl)-4-[(4-isopropyloxazole-2-carbonyl)amino]pentanoic Acid], the Ki lay within 3.16 to 10 nM.

For the molecule `O=C(N[C@H](Cc1ccc(-c2ccccc2)cc1)C[C@@H](COCCO)C(=O)O)c1c[nH]nn1` [Example 11, (2S,4S)-5-Biphenyl-4-yl-2-(2-hydroxyethoxymethyl)-4-[(1H-[1,2,3]triazole-4-carbonyl)amino]pentanoic Acid], the Ki was 1.26 to 3.16 nM.

For `O=C(N[C@H](Cc1ccc(-c2ccccc2)cc1)CC(C(=O)O)C1CCOCC1)c1cnn[nH]1` (stereo in doubt) [Example 58, (S)-5-Biphenyl-4-yl-2-(tetrahydropyran-4-yl)-4-[(3H-[1,2,3]triazole-4-carbonyl)amino]pentanoic Acid], the Ki lay within 3.16 to 10 nM.

Consider `N[C@H](C[C@@H](Cc1ccc(-c2cc(Cl)ccc2F)cc1)NC(=O)c1cc(O)no1)C(=O)O` [Example 16-28, (2R,4R)-2-Amino-5-(5′-chloro-2′-fluorobiphenyl-4-yl)-4-[(3-hydroxyisoxazole-5-carbonyl)amino]pentanoic acid], for which the pKi entry was “≧9.0”.

As to `COC(=O)N[C@H](C[C@@H](Cc1ccc(-c2cc(Cl)ccc2F)cc1)NC(=O)c1cc(C(C)=O)n[nH]1)C(=O)O` [Example 30-2, (2R,4R)-4-[(5-Acetyl-2H-pyrazole-3-carbonyl)-amino]-5-(5′-chloro-2′-fluoro-biphenyl-4-yl)-2-methoxycarbonylaminopentanoic acid], the pKi entry is on record as “≧9.0”.

On to `NCC[C@H](C[C@@H](Cc1ccc(-c2cc(Cl)ccc2F)cc1)NC(=O)c1cnn[nH]1)C(=O)O` [Example 24-2, (2R,4S)-2-(2-Aminoethyl)-5-(5′-chloro-2′-fluorobiphenyl-4-yl)-4-[(3H-[1,2,3]triazole-4-carbonyl)amino]pentanoic acid], for which the Ki was 1.26 to 3.16 nM.

As for `O=C(N[C@H](Cc1ccc(-c2cc(Cl)ccc2F)cc1)C[C@@H](CN1CC(CO)C1)C(=O)O)c1cnn[nH]1` [Example 93b, (2S,4S)-5-(5′-Chloro-2′-fluorobiphenyl-4-yl)-2-(3-hydroxymethyl-azetidin-1-ylmethyl)-4-[(3H-[1,2,3]triazole-4-carbonyl)amino]pentanoic Acid], the Ki was not above 1 nM.

With `Cc1cnc(C(=O)N[C@H](Cc2ccc(-c3cc(Cl)ccc3F)cc2)C[C@@H](CCN)C(=O)O)o1` [Example 23, (2R,4S)-2-(2-Aminoethyl)-5-(5′-chloro-2′-fluorobiphenyl-4-yl)-4-[(5-methyloxazole-2-carbonyl)amino]pentanoic Acid], the Ki was 1.26 to 3.16 nM.

For the molecule `Cc1cnc(C(=O)N[C@H](Cc2ccc(-c3cc(Cl)ccc3F)cc2Cl)C[C@@H](N)C(=O)O)o1` [Example 18-3, (2R,4R)-2-Amino-5-(3,5′-dichloro-2′-fluorobiphenyl-4-yl)-4-[(5-methyloxazole-2-carbonyl)amino]pentanoic acid], the pKi result is reported as “≧9.0”.

As to `COc1cnc(C(=O)N[C@H](Cc2ccc(-c3cc(Cl)ccc3F)cc2Cl)C[C@@H](N)C(=O)O)o1` [Example 18-11, (2R,4R)-2-Amino-5-(3,5′-dichloro-2′-fluoro-biphenyl-4-yl)-4-[(5-methoxyoxazole-2-carbonyl)amino]pentanoic acid], the pKi result is “≧9.0”.

In the case of `CN(C)CCOC[C@H](C[C@@H](Cc1ccc(-c2cc(Cl)ccc2F)cc1)NC(=O)c1c[nH]nn1)C(=O)O` [Example 100, (2S,4S)-5-(5′-Chloro-2′-fluorobiphenyl-4-yl)-2-(2-dimethylamino-ethoxymethyl)-4-[(1H-[1,2,3]triazole-4-carbonyl)amino]pentanoic Acid], the Ki is not above 1 nM.

Regarding `N[C@H](C[C@@H](Cc1ccc(-c2cc(Cl)ccc2F)cc1)NC(=O)c1cc(-c2cnccn2)n[nH]1)C(=O)O` [Example 16-33, (2R,4R)-2-Amino-5-(5′-chloro-2′-fluorobiphenyl-4-yl)-4-[(5-pyrazin-2-yl-2H-pyrazole-3-carbonyl)amino]pentanoic acid], the pKi result is “≧9.0”.

Consider `CCOC[C@H](C[C@@H](Cc1ccc(-c2cc(Cl)ccc2F)cc1)NC(=O)c1ncccn1)C(=O)O` [Example 7-11, (2S,4S)-5-(5′-Chloro-2′-fluorobiphenyl-4-yl)-2-ethoxymethyl-4-[(pyrimidine-2-carbonyl)amino]pentanoic acid], for which the pKi result is listed as “≧9.0”.

Consider `Cc1cnc(C(=O)N[C@H](Cc2ccc(-c3cc(Cl)ccc3F)cc2)C[C@@H](N)C(=O)O)o1` [Example 16-3, (2R,4R)-2-Amino-5-(5′-chloro-2′-fluorobiphenyl-4-yl)-4-[(5-methyloxazole-2-carbonyl)-amino]pentanoic acid], for which the Ki was 1.26 to 3.16 nM.

On to `Cc1nc(C(=O)N[C@H](Cc2ccc(-c3cc(Cl)ccc3F)cc2)C[C@@H](CN)C(=O)O)co1` [Example 21-5, (2S,4S)-2-Aminomethyl-5-(5′-chloro-2′-fluorobiphenyl-4-yl)-4-[(2-methyloxazole-4-carbonyl)amino]pentanoic acid], for which the Ki was 1.26 to 3.16 nM.

As to `NCCCCC(=O)N[C@H](C[C@@H](Cc1ccc(-c2cc(Cl)ccc2F)cc1)NC(=O)c1c[nH]nn1)C(=O)O` [Example 72, (2R,4R)-2-(5-Amino-pentanoylamino)-5-(5′-chloro-2′-fluorobiphenyl-4-yl)-4-[(1H-[1,2,3]triazole-4-carbonyl)amino]pentanoic Acid], the pKi entry was “≧9.0”.

Take `N[C@H](C[C@@H](Cc1ccc(-c2cc(Cl)ccc2F)cc1)NC(=O)c1nc2cc(Cl)ccn2n1)C(=O)O` [Example 16-25, (2R,4R)-2-Amino-5-(5′-chloro-2′-fluorobiphenyl-4-yl)-4-[(7-chloro-[1,2,4]triazolo[1,5-a]pyridine-2-carbonyl)amino]pentanoic acid]: the pKi entry was “≧9.0”.

As to `O=C(N[C@H](Cc1ccc(-c2cc(Cl)ccc2F)cc1)C[C@@H](Cc1nnn[nH]1)C(=O)O)c1cnn[nH]1` [Example 63, (2S,4S)-5-(5′-Chloro-2′-fluorobiphenyl-4-yl)-2-(1H-tetrazol-5-ylmethyl)-4-[(3H-[1,2,3]triazole-4-carbonyl)amino]pentanoic Acid], the Ki lay in the range of 1.26 to 3.16 nM.
